Target: T1, human mGluR5d (Homo sapiens, UniProt P41594)
T1 construct: expressed in transfected cells
Experiment: FLIPR assay of [Ca2+]i mobilization (Group I receptor antagonist activity)
Format: cell-based
Conditions: cells expressing human mGluR5d; antagonist block of agonist challenge
Method: For FLIPR analysis, cells expressing human mGluR5d as described in WO97/05252 were seeded on collagen coated clear bottom 96-well plates with black sides and analysis of [Ca^2+]i mobilization was done 24 h after seeding.
FLIPR experiments were done using a laser setting of 0.800 W and a 0.4 second CCD camera shutter speed. Each FLIPR experiment was initiated with 160 μl of buffer present in each well of the cell plate. After each addition of the compound, the fluorescence signal was sampled 50 times at 1 second intervals followed by 3 samples at 5 second intervals. Responses were measured as the peak height of the response within the sample period. EC50 and IC50 determinations were made from data obtained from 8-point concentration response curves (CRC) performed in duplicate. Agonist CRC were generated by scaling all responses to the maximal response observed for the plate. […]
FLIPR experiments were done using a laser setting of 0.800 W and a 0.4 second CCD camera shutter speed with excitation and emission wavelengths of 488 nm and 562 nm, respectively. […] After each addition the fluorescence signal was sampled 50 times at 1 second intervals followed by 3 samples at 5 second intervals. Responses were measured as the peak height of the response within the sample period. […]

T1 sequence (P41594 21-942 isoform P41594-3 limits assumed): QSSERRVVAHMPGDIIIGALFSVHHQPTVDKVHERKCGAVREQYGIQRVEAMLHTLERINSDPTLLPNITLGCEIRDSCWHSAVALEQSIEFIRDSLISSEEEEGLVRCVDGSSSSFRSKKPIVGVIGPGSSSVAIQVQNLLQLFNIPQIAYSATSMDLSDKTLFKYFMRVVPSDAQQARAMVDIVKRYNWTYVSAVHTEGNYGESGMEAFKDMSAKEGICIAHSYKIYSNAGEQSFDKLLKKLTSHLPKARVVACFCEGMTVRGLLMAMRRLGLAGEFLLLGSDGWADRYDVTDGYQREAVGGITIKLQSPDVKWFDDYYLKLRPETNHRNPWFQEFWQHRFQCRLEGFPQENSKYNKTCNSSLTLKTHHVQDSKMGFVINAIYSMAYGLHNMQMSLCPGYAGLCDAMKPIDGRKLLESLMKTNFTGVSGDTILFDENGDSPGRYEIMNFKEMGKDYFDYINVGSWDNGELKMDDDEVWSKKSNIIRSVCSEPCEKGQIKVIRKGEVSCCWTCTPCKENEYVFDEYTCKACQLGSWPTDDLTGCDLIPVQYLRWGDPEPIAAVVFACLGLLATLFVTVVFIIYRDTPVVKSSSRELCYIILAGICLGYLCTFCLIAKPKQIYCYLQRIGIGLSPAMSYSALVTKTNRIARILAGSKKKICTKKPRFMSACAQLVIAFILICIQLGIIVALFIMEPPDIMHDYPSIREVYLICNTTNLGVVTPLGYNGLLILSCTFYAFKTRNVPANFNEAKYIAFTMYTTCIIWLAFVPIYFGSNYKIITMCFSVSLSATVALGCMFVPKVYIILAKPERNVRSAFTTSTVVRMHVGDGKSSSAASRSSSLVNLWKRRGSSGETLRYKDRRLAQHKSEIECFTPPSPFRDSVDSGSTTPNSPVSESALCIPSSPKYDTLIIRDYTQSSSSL

Molecule `Cn1c(-c2ccc(OC(F)F)cc2)nnc1N1CCOCC1c1nc(-c2cccc(Cl)c2)no1` (centres unmarked) [3-[3-(3-Chloro-phenyl)-[1,2,4]oxadiazol-5-yl]-4-[5-(4-difluoromethoxy-phenyl)-4-methyl-4H-[1,2,4]triazol-3-yl]-morpholine] has an IC50 of 0.199 µM.

For `Cn1c(-c2ccncc2)nnc1N1CCCCC1c1nnn(-c2cccc(Cl)c2)n1` (centres unmarked) [4-(5-{2-[2-(3-chlorophenyl)-2H-tetrazol-5-yl]piperidin-1-yl}-4-methyl-4H-1,2,4-triazol-3-yl)pyridine], the IC50 was 0.04 µM.

— patent publication US20060025414A1, “Poly-heterocyclic compounds and their use as metabotropic glutamate receptor antagonists” (AstraZeneca AB, priority 2004, published 2006)
